Six compounds from US20200061062A1, “INHIBITORS OF HUMAN PHOSPHATIDYLINOSITOL 3-KINASE DELTA” (ICOS Corporation, priority 2000, published 2020) can be followed below.

In data set [1] the target is T1, PI3Kβ (Homo sapiens, UniProt P42338).
T1 construct: His tag (pFastbac HTa vector) (N); FLAG (N); made in house; host or cells: Sf21 insect cells (baculovirus)
Put plainly: Biochemical assay using 200 μM ATP, Beta.
Method: (§3) PI3Kδ catalyzes a phosphotransfer from γ-[^32P]ATP to PIP2/PS liposomes at the D3′ position of the PIP2 lipid inositol ring. This reaction is MgCl2 dependent and is quenched in high molarity potassium phosphate buffer pH 8.0 containing 30 mM EDTA. […] The reaction products (and all unlabelled products) are transferred to a 96-well, prewetted PVDF filter plate, filtered, and washed in high molarity potassium phosphate. Scintillant is added to the dried wells and the incorporated radioactivity is quantitated.
(§4) This dilution established a final concentration of 200 μM ATP in the reaction volume. The reaction was stopped with 150 μL quench buffer (1.0 M potassium phosphate pH 8.0, 30 mM EDTA). A portion of the quenched solution (180 μL) was then transferred to a PVDF filter plate (Millipore # MAIP NOB prewetted with sequential 200 μL washes of 100% methanol, water, and finally 1.0 M potassium phosphate pH 8.0 wash buffer).
(§5) The PVDF filter plate was aspirated under moderate vacuum (2-5 mm Hg), washed with 5×200 μL of wash buffer, and then dried by aspiration. The filter was subsequently blotted, allowed to air dry completely, and inserted into a Wallac counting cassette with 50 μL of Ecoscint scintillation cocktail added per well.
(§6) Subsequent selectivity assays were done similarly using the same 3× substrate stocks except they contained 0.05 mCi/mL γ[^32P]ATP and 3 mM PIP2. Subsequent selectivity assays also used the same 3× enzyme stocks, except they now contained 3 nM of any given PI3K isoform.
(§7) For all selectivity assays, the test compounds were weighed out and dissolved into 10-50 mM stocks in 100% DMSO (depending on their respective solubilities) and stored at −20° C. […] From these dilutions, 20 μL was added into the assay wells alongside water blanks used for the enzyme (positive) control and the no enzyme (background) control.
(§8) This selectivity protocol is identical to that described above, except the 3× stock ATP concentration was 600 μM.

Data set [2] concerns the target T2, PI3Kγ (Homo sapiens, UniProt P48736).
T2 construct: His tag (pFastbac HTb vector) (N); FLAG (N); made in house; host or cells: Sf21 insect cells (baculovirus)
Nature of the data set: Biochemical assay of PI3K potency and selectivity using 20 μM ATP, Gamma. As to conditions: for Gamma/Delta Ratio: ratio of IC50 values. The source says:
Recombinant baculoviruses containing the above clones were generated using manufacturer's recommended protocol (Life Technologies). Baculoviruses expressing His-tagged p110α, p110γ, or p110δ catalytic subunit and p85 subunit were coinfected into Sf21 insect cells. To enrich the heterodimeric enzyme complex, an excess amount of baculovirus expressing p85 subunit was infected, and the His-tagged p110 catalytic subunit complexed with p85 was purified on nickel affinity column. […] In an alternate approach, p101 can be cloned into baculovirus, to permit coexpression with its preferred binding partner p110γ. […]

Data set [3] deals with T3, PI3Kα (Homo sapiens, UniProt P42336).
T3 construct: His tag (pFastbac HTb vector) (N); FLAG; made in house; host or cells: Sf21 insect cells (baculovirus)
Nature of the data set: Biochemical assay of PI3K potency and selectivity using 20 μM ATP, Alpha. As to conditions: for Alpha/Delta Ratio / IC50: 20 μM ATP; for Alpha/Delta Ratio: ratio of IC50 values, > = hypothetical ratio with 100 μM substituted for the missing IC50; for IC50: read-out: Alpha IC50. The source says: (§1) Recombinant PI3K heterodimeric complexes consisting of a p110 catalytic subunit and a p85 regulatory subunit were overexpressed using the BAC-TO-BAC® HT baculovirus expression system (GIBCO/BRL), and then purified for use in biochemical assays. The four Class I PI 3-kinases were cloned into baculovirus vectors as follows: […]

The target of data set [4] is T3, PI3Kα. Nature of the data set: Biochemical assay using 200 μM ATP, Alpha.
Data set [5] has as its target T4, PI3Kδ (Homo sapiens, UniProt O00329, S253N). Put plainly: Biochemical assay of PI3K potency and selectivity using 20 μM ATP, Delta. As to conditions: 20 μM ATP; read-out: Delta IC50. Also noted: His tag (pFastbac HTb vector) (N); FLAG; made in house; host or cells: Sf21 insect cells (baculovirus).
Source text: as §1

Data set [6] concerns the target T2, PI3Kγ. Put plainly: Biochemical assay using 200 μM ATP, Gamma.
Method: as §3, §4, §5, §6, §7, §8
For data set [7], the system named is Murine splenocytes (Balb/c). Nature of the data set: B cell proliferation in response to cell surface IgM stimulation. It counts as cell-based. As to conditions: Mus musculus, Splenocyte; stimulated B cell proliferation; read-out: Mouse BCR Stim (EC50). The method, then:
In the above experiment, the B cells were stimulated using PANSORBIN®. The effect of D-000 on B cell proliferation response when they were stimulated through their cell surface IgM using anti-IgM antibody also was measured. Murine splenocytes (Balb/c) were plated into 96-well microtiter plates at 2×10^5 cells per well in 10% FBS/RPMI. Appropriate dilutions of test inhibitor in complete medium were added to the cells and the plates were incubated for 30-60 minutes prior to the addition of stimulus. Following the preincubation with test inhibitor an F(ab′)2 preparation of goat antibody specific for the μ-chain of mouse IgM was added to the wells at a final concentration of 25 μg/mL. The plates were incubated at 37° C. for 3 days and 1 μCi of [^3H]-thymidine was added to each well for the final four hours of culture. The plates were harvested onto fiber filters washed and the incorporation of radiolabel was determined using a beta counter (Matrix 96, Packard Instrument Co., Downers Grove, Ill.) and expressed as counts per minute (CPM).
(§2) Using the methods described in Examples 3-5, above, compounds of the invention were tested for inhibitory activity and potency in assays of stimulated B and T cell proliferation, neutrophil (PMN) migration, and neutrophil (PMN) elastase release. In Table 4, the values shown are effective concentrations of the compound (EC50; μM). Where no value is given, no assay was performed.

Data set [8] deals with T1, PI3Kβ. Nature of the data set: Biochemical assay of PI3K potency and selectivity using 20 μM ATP, Beta. As to conditions: 20 μM ATP; for Beta/Delta Ratio: ratio of IC50 values, > = hypothetical ratio with 100 μM substituted for the missing IC50; for IC50: read-out: Beta IC50. As to the method: Recombinant PI3K heterodimeric complexes consisting of a p110 catalytic subunit and a p85 regulatory subunit were overexpressed using the BAC-TO-BAC® HT baculovirus expression system (GIBCO/BRL), and then purified for use in biochemical assays. The four Class I PI 3-kinases were cloned into baculovirus vectors as follows:
The 3× substrate for the HTS contained 0.6 mM Na2ATP, 0.10 mCi/mL γ-[^32P]ATP (NEN, Pittsburgh, Pa.), 6 μM PIP2/PS liposomes (Avanti Polar Lipids, Inc., […].), in 20 mM HEPES, pH 7.4.

Data set [9] deals with T4, PI3Kδ. Nature of the data set: Biochemical assay using 200 μM ATP, Delta.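 Also: radiometric filter-binding assay: PI3Kδ transfers ³²P from γ-[³²P]ATP onto PIP2/PS liposomes, counted by scintillation, enzyme-only wells as positive control, no-enzyme wells as background.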
Method: as §3, §4, §5, §6, §7, §8
The next data set relates to human neutrophils. Nature of the data set: Elastase exocytosis from neutrophils (fMLP-induced). It counts as cell-based. As to conditions: neutrophil (PMN) elastase release. As to the method:
Aliquots (8 mL) of heparinized blood from healthy volunteers were layered on 3 mL cushions of 7.3% FICOLL® (Sigma, St. Louis, Mo.) and 15.4% HYPAQUE® (Sigma) and centrifuged at 900 rpm for 30 min at room temperature in a table top centrifuge (Beckman). The neutrophil-rich band just above the FICOLL®-HYPAQUE® cushion was collected and washed with Hanks' balanced salt solution (HBSS) containing 0.1% gelatin. Residual erythrocytes were removed by hypotonic lysis with 0.2% NaCl. The neutrophil preparation was washed twice with HBSS containing 0.1% gelatin and used immediately.
In addition to superoxide generation, activated neutrophils also respond by releasing several proteases that are responsible for the destruction of tissues and cartilage during inflammation. As an indication of protease release, the effect of D-000 on elastase exocytosis was measured. Elastase exocytosis was quantitated by modification of the procedure described by Ossanna et al. (J Clin Invest, 77:1939-1951 (1986)), as follows. Purified human neutrophils (0.2×10^6) (treated with either DMSO or a serial dilution of D-000 in DMSO) were stimulated with fMLP in PBS containing 0.01 mg/mL cytochalasin B, 1.0 μM sodium azide (NaN3), 5 μg/mL L-methionine and 1 μM fMLP for 90 min at 37° C. in a 96-well plate. At the end of the incubation period, the plate was centrifuged for 5 min at 1000 rpm, and 90 μL of the supernatant was transferred to 10 μL of 10 mM solution of an elastase substrate peptide, MeO-suc-Ala-Ala-Pro-Val-pNA, wherein MeO-suc=methoxy-succinyl; pNA=p-nitroanilide (Calbiochem, San Diego, Calif.). Absorbance at 410 nm was monitored for 2 hr in a 96-well plate reader. To measure the relative amounts of elastase excytosed, all absorbance values were normalized to the values without any inhibitor. […] Inhibition was half-maximal at a concentration of about 2-3 μM D-000.
as §2

By melting point is commonly meant the temperature of the solid-liquid transition. Usually remaining activity stands for what remains of the control signal, in per cent. As a reminder, the EC50 is the concentration at which the effect is half-maximal.

SMILES strings stand for the structures. Like-named read-outs stand apart in the source and are kept apart here.

T3 sequence (P42336 whole entry): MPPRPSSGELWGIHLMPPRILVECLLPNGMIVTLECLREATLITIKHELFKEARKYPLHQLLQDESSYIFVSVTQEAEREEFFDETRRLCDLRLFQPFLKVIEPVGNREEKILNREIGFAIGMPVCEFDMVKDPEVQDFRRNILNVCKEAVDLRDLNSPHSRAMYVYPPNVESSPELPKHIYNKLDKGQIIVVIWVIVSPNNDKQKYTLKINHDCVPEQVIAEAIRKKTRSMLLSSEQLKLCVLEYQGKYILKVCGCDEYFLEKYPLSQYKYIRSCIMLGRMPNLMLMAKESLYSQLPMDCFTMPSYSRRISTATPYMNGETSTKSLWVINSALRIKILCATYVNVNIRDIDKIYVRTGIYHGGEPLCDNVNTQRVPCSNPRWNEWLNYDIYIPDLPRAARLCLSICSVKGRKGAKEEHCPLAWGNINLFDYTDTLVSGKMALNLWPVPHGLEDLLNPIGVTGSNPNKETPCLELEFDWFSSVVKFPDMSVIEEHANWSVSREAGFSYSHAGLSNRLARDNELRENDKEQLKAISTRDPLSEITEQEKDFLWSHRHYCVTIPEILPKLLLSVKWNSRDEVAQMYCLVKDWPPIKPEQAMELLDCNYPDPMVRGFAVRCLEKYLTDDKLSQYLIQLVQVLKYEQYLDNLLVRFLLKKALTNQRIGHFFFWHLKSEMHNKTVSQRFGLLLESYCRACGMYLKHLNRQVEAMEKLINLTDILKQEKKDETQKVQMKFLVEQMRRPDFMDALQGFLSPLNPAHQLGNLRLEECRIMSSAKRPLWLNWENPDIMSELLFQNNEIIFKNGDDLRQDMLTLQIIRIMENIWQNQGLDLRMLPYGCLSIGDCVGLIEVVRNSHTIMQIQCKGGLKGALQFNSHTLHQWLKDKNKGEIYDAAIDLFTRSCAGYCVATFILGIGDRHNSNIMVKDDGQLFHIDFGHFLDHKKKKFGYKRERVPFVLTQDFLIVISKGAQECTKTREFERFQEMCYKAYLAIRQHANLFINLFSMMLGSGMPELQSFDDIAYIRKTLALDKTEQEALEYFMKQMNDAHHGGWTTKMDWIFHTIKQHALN
T3 sequence (P27986 whole entry partner): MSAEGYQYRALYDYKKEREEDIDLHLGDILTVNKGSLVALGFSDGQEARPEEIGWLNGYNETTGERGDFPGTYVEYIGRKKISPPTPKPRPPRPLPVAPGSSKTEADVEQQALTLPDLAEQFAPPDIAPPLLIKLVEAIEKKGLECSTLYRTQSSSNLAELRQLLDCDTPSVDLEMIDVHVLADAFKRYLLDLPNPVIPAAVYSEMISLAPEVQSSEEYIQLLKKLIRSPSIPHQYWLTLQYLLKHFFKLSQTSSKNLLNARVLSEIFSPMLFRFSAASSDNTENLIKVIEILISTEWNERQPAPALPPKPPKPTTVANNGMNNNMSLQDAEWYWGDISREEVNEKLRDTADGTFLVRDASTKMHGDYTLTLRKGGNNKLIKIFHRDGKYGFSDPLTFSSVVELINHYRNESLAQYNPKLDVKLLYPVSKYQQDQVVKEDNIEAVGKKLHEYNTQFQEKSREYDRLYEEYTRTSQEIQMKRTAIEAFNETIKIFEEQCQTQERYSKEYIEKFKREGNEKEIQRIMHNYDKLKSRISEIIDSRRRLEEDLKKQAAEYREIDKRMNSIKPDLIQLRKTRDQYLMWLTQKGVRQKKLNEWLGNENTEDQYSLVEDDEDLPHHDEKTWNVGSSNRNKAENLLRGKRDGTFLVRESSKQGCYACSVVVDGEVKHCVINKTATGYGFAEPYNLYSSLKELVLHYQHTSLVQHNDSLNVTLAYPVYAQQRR
T4 sequence (O00329 whole entry S253N): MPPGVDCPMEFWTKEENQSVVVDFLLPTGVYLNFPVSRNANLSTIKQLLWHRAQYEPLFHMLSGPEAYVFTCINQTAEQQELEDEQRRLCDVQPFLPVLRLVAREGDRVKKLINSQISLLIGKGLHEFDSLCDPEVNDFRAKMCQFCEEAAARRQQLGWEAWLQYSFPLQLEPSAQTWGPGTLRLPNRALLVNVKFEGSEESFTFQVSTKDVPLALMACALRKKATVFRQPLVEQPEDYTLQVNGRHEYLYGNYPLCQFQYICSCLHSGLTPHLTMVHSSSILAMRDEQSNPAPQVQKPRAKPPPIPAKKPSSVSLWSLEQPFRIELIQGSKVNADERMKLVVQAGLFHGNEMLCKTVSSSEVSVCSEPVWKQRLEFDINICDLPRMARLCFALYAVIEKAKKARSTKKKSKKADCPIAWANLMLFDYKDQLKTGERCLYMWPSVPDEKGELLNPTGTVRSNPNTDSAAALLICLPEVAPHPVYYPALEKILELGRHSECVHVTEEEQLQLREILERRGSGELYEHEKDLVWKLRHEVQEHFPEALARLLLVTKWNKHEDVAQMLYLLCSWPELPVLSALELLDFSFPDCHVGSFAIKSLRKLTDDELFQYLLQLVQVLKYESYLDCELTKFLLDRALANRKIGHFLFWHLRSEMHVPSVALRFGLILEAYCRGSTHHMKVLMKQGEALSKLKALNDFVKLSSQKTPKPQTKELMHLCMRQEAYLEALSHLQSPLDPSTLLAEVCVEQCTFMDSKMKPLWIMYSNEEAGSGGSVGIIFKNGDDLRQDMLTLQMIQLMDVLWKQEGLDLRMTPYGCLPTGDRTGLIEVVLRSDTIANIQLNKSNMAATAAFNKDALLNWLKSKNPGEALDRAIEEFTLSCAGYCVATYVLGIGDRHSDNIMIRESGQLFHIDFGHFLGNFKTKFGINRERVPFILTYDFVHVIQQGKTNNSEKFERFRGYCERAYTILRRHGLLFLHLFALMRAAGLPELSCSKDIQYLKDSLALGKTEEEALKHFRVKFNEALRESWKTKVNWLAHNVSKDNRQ
T4 sequence (P27986 whole entry partner): as the sequence (P27986 whole entry partner) above
T2 sequence (P48736 whole entry): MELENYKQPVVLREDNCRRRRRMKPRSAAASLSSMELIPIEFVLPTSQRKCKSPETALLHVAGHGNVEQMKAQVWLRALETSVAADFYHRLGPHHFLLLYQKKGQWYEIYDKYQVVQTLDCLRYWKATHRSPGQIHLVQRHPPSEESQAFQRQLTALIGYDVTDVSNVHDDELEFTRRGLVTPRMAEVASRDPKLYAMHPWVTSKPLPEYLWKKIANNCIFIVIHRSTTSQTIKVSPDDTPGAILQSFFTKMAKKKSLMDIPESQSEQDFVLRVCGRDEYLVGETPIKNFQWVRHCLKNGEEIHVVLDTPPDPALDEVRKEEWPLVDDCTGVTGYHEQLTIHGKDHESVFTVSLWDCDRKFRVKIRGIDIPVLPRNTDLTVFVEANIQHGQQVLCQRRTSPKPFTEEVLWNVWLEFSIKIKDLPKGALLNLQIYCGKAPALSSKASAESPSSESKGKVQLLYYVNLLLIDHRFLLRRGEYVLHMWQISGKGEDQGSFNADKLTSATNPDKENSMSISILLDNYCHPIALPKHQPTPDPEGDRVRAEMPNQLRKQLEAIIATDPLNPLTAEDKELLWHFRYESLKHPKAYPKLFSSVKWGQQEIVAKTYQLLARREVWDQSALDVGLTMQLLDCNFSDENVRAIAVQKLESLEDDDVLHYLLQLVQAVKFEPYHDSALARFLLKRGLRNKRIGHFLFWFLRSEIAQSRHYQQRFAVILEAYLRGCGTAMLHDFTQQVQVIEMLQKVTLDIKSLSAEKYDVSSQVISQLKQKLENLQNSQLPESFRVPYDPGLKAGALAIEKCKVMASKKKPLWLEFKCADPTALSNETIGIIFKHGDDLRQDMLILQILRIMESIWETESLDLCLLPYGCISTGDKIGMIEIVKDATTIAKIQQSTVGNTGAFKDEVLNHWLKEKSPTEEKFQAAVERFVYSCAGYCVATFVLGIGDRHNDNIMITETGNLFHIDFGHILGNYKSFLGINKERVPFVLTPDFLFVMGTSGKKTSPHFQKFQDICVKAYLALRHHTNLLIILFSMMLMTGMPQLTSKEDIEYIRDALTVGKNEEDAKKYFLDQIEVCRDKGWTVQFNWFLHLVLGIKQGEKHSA
T1 sequence (P42338 whole entry): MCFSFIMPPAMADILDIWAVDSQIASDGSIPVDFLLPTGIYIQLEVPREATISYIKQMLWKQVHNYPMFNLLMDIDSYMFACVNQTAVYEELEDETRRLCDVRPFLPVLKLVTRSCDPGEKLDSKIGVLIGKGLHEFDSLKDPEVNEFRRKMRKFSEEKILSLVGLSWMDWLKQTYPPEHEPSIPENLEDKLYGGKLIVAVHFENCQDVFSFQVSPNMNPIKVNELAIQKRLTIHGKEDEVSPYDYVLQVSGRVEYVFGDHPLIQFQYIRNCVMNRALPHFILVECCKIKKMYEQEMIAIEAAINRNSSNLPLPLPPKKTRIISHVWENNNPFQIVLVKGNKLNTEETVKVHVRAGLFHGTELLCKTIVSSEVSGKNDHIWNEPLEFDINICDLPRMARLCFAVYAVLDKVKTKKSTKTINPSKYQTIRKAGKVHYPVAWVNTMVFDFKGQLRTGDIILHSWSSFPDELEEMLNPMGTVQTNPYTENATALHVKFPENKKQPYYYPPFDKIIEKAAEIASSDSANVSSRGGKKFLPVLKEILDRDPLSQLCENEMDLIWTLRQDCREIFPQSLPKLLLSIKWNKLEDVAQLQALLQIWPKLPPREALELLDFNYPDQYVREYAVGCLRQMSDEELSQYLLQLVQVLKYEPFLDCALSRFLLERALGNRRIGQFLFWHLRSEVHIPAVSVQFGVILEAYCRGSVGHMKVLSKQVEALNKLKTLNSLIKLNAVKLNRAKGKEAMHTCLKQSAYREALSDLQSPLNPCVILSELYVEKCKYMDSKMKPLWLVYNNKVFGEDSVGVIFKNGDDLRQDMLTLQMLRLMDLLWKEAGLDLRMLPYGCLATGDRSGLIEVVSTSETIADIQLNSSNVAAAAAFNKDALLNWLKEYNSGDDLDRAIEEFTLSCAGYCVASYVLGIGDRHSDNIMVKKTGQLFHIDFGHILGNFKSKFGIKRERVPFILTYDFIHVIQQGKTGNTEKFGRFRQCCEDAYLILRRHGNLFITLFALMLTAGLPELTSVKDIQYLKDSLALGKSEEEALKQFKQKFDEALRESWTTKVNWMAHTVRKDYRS
T1 sequence (P27986 whole entry partner): as the sequence (P27986 whole entry partner) above

In the case of `O=c1c2c(Cl)cccc2nc(CSc2ncnc3[nH]cnc23)n1-c1ccccc1-c1ccccc1` [Compound D-013, 3-Biphenyl-2-yl-5-chloro-2-(9H-purin-6-ylsulfanylmethyl)-3H-quinazolin-4-one], the melting point was 222 to 222.5 °C (dec.). Moreover, at PI3Kβ [1], the “Beta/Delta Ratio” value was 289. Besides, on PI3Kγ [2], the IC50 worked out at 2.1 µM and the “Gamma/Delta Ratio” value was 42. The “Alpha/Delta Ratio” value at PI3Kα [3] is reported as >2,000. Further, the remaining activity at 100 µM on PI3Kα [3] (read-out: percent activity remaining at 100 μM, 20 μM ATP, 100 μM compound did not inhibit by at least 50%) came to 71%. The “Alpha/Delta Ratio” value at PI3Kα [4] is 461. For the same compound, at PI3Kδ [5], the IC50 was 0.05 µM. On PI3Kγ [6], the “Gamma/Delta Ratio” value is 24 and the IC50 was 12 ± 1 µM. Moreover, the half-maximal effective concentration (EC50) in data set [7] is 1.4 µM. Also, on PI3Kβ [8], the “Beta/Delta Ratio” value is 260 and the IC50 stood at 13 µM. This compound also displayed an IC50 at PI3Kδ [9] of 0.51 ± 0.6 µM.
The compound `Cc1ccccc1-n1c(CSc2ncnc3[nH]cnc23)nc2cccc(Cl)c2c1=O` [Compound D-010, 5-Chloro-2-(9H-purin-6-ylsulfanylmethyl)-3-o-tolyl-3H-quinazolin-4-one] returned a melting point of 213.9 °C. At PI3Kβ [1], the “Beta/Delta Ratio” value worked out at 144 and the IC50 was found to be 33 ± 4 µM. For the same compound, on PI3Kγ [2], the IC50 is 0.7 µM and the “Gamma/Delta Ratio” value is on record as 12. At PI3Kα [3], the “Alpha/Delta Ratio” value worked out at 800 and the IC50 was determined as 48 µM. In addition, the “Alpha/Delta Ratio” value on PI3Kα [4] came to 658. Further, at PI3Kδ [5], the IC50 is 0.06 µM. Further, at PI3Kγ [6], the “Gamma/Delta Ratio” value is recorded as 27 and the IC50 was 6 ± 3 µM. Moreover, the EC50 in data set [7] came to 0.2 ± 0.1 µM. In the data set on human neutrophils, this compound showed an EC50 of 0.3 ± 0.3 µM. Further, on PI3Kβ [8], the “Beta/Delta Ratio” value came out at 183 and the IC50 stood at 11 µM. In addition, the IC50 against PI3Kδ [9] worked out at 0.23 ± 0.2 µM.
For `Nc1ncnc2c1ncn2Cc1nc2cccc(Cl)c2c(=O)n1-c1ccccc1-c1ccccc1` [Compound D-009, 2-(6-Aminopurin-9-ylmethyl)-3-biphenyl-2-yl-5-chloro-3H-quinazolin-4-one], the melting point is 299.9 to 300.1 °C. Also, on PI3Kβ [1], the “Beta/Delta Ratio” value was 26 and the IC50 was found to be 18 µM. In addition, at PI3Kα [3], the “Alpha/Delta Ratio” value is 683 and the IC50 was 82 µM. For the same compound, the “Alpha/Delta Ratio” value on PI3Kα [4] came to 200. The IC50 at PI3Kδ [5] came to 0.12 µM. For the same compound, at PI3Kγ [6], the “Gamma/Delta Ratio” value came to 76 and the IC50 came to 53 µM. Moreover, the concentration giving a half-maximal response (EC50) in [7] is 0.3 ± 0.2 µM. This compound gave an EC50 in the data set on human neutrophils of 10.5 µM. Besides, at PI3Kβ [8], the “Beta/Delta Ratio” value was 50 and the IC50 was 5 µM. Further, the IC50 against PI3Kδ [9] is 0.7 µM.
With `COc1ccccc1-n1c(CSc2ncnc3[nH]cnc23)nc2cccc(C)c2c1=O` [Compound D-047, 3-(2-methoxyphenyl)-5-methyl-2-(9H-purin-6-ylsulfanylmethyl)-3H-quinazolin-4-one], the “Beta/Delta Ratio” value on PI3Kβ [1] was 150; at PI3Kβ [8] it was 100. For the same compound, the IC50 against PI3Kβ [1] came to 30 µM; against PI3Kγ [2], 0.5 µM; at PI3Kα [3] it was 30 µM; on PI3Kδ [5], 0.09 µM; on PI3Kγ [6] it was 4.5 µM; at PI3Kβ [8] it was 9 µM. On PI3Kδ [9], this compound had an IC50 of 0.2 µM. In addition, the “Gamma/Delta Ratio” value at PI3Kγ [2] is 5.6; on PI3Kγ [6], 23. The figures for the “Alpha/Delta Ratio” value at PI3Kα [3] and at PI3Kα [4] were 333 and 810, respectively. Besides, the concentration giving a half-maximal response (EC50) turned out to be 0.3 µM in data set [7] and 0.5 ± 0.2 µM with human neutrophils.
In turn, `Cc1cccc2nc(CSc3ncnc4[nH]cnc34)n(-c3ccccc3F)c(=O)c12` [Compound D-031, 3-(2-Fluorophenyl)-5-methyl-2-(9H-purin-6-ylsulfanylmethyl)-3H-quinazolin-4-one] registered a melting point of 151.9 to 152.2 °C. For the same compound, on PI3Kβ [1], the “Beta/Delta Ratio” value was 707 and the IC50 was determined as 137 ± 23 µM. Further, at PI3Kα [3], the “Alpha/Delta Ratio” value was above 833 and the IC50 was determined as 74 µM. At PI3Kα [4], the “Alpha/Delta Ratio” value is on record as 903. The IC50 at PI3Kδ [5] worked out at 0.12 µM. Also, on PI3Kγ [6], the “Gamma/Delta Ratio” value amounted to 802 and the IC50 was 155 ± 60 µM. For the same compound, the half-maximal effective concentration (EC50) in data set [7] stood at 0.2 ± 0.1 µM. This compound returned a 50% effective concentration (EC50) with human neutrophils of 0.7 ± 0.1 µM. At PI3Kβ [8], the “Beta/Delta Ratio” value came to 83 and the IC50 amounted to 10 µM. This compound came in with an IC50 against PI3Kδ [9] of 0.2 ± 0.01 µM.
`CC(=O)O.O=c1c2ccccc2nc(CSc2ncnc3[nH]cnc23)n1N1CCOCC1` [Compound D-039, 3-morpholin-4-yl-2-(9H-purin-6-ylsulfanylmethyl)-3H-quinazolin-4-one, acetate salt]: the “Beta/Delta Ratio” value at PI3Kβ [1] is given as 50; on PI3Kβ [8], above 111. Besides, the IC50 turned out to be 38 µM on PI3Kγ [2], 0.9 µM on PI3Kδ [5] and 2.6 µM against PI3Kδ [9]. In addition, the figures for the “Gamma/Delta Ratio” value at PI3Kγ [2] and on PI3Kγ [6] were 42 and 44, respectively. Moreover, the figures for the “Alpha/Delta Ratio” value on PI3Kα [3] and on PI3Kα [4] were above 111 and 65, respectively. The remaining activity at 100 µM at PI3Kα [3] (read-out: percent activity remaining at 100 μM) was found to be 77%; at PI3Kβ [8] (read-out: Beta: percent activity remaining at 100 μM, 100 μM compound did not inhibit by at least 50%) it was 66%. In addition, the EC50 in data set [7] is 0.9 ± 0.1 µM; with human neutrophils, 5 µM.
